Experimental data reported in US9828622B2, “Photoactivatable antimicrobial agents and therapeutic and diagnostic methods of using same” (The General Hospital Corporation, priority 2008, dated 2017).
Entries after “also recorded” stand apart in the source; their conditions may differ. Read-outs that look alike come from different tables or passages of the source.

Columns and labels:
B. cereus = assay: Growth inhibition / MIC assay; assay type: cell-based, Bacillus cereus
Procedure: (§1) (a.) inhibition constants of a panel of β-lactams for the competitive substrate inhibition of β-LEAP hydrolysis by B. cereus β-lactamase, (b.) inhibition constants for β-LEAP hydrolysis by bacterial suspensions, (c.) inhibition profiles of panel of β-lactams for B. cereus, (d.) MICs of panel of β-lactams for B. cereus. […] Statistical significance was determined via Tukey multiple comparison test using Graphpad Prism 5. Horizontal bars connected by solid intersections indicate significant difference.
(§2) This approach involved combining in a 384 multi-well assay plate format purified B. cereus beta-lactamase or bacterial suspensions with the β-LEAP of the invention and a competitive beta-lactam substrate, including amoxicillin, clavulanic acid, ampicillin, penicillin G, carbenicillin, cefazolin, cefatoxime or ceftazidime.

[1] = biological target: purified B. cereus beta-lactamase; assay: Competitive substrate inhibition of β-LEAP hydrolysis, purified enzyme; assay type: biochemical, Bacillus cereus; conditions: competitive beta-lactam substrate; 384 multi-well plate
Procedure: as §1
(§3) This Example describes a new methodology for use in characterizing beta-lactamases by using a competitive substrate inhibition assay. It is believed that no competitive substrate inhibition assays for determining beta-lactamase functionality are currently in use by clinical microbiology laboratories. This new approach is based on exploiting the sensitivity and mechanism of the β-LEAP compound of the invention. More in particular, this approach is based on measuring the level of induced-fluorescence caused by the cleavage/hydrolysis and consequent activation of the β-LEAP compound by beta-lactamase enzymes under evaluation while also in the presence of, or “in competition” with, different types and amounts of beta-lactamase enzyme substrates. The degree of inhibition of β-LEAP hydrolysis/fluorescence due to competition with the beta-lactam competitor substrates is determined, which provides the basis for determining beta-lactamase functionality.
as §2

[2] = biological target: Bacillus cereus 5/β bacterial suspensions; assay: Competitive substrate inhibition of β-LEAP hydrolysis, bacterial suspensions; assay type: cell-based; conditions: competitive beta-lactam substrate; whole bacteria suspensions
Procedure: as §1, §3, §2

[3] = Photosensitizing efficacy
From the text: The terminal carboxyl group with the flexible alkyl chain provides an ideal site for conjugation. 7-amino-3-chloromethyl-3-cephem-4-carboxylic acid p-methoxybenzyl ester (ACLE, commercial available) is used as cephalosporin scaffold. ACLE is a common starting material to synthesize cephalosporin derivatives. It integrates an amino group at 7-position. By replacing chlorine at 3′-position with 4-amino-thiophenol provides an additional amino group therefore each ACLE molecule can accommodate two EtNBS-COOH molecules to form a static quenching pair.

Row | Compound | in vitro growth inhibition (MIC assay) (B. cereus) | inhibition of β-LEAP hydrolysis/fluorescence (inhibition constants, Ki, FIG. 13a) [1] | inhibition of β-LEAP hydrolysis/fluorescence (inhibition constants, Ki, FIG. 13b) [2] | also measured
1 | O=C(O)[C@H]1/C(=C/CO)O[C@@H]2CC(=O)N21 [clavulanic acid] | no inhibition; also recorded: did not inhibit the growth |  |  | 
2 | CC(C)(O/N=C(\C(=O)N[C@@H]1C(=O)N2C(C(=O)[O-])=C(C[n+]3ccccc3)CS[C@H]12)c1csc(N)n1)C(=O)O [ceftazidime] |  | more effective inhibitors | more effective inhibitors | 
3 | CCN(CC)c1ccc2nc3c(cc(NCCCCC(=O)O)c4ccccc43)[s+]c2c1 [EtNBS-COOH, 5-(4′-carboxybutylamino)-9-diethylaminobenzo[a]phenothiazine] |  |  |  | photosensitizing efficacy [3]: excellent photosensitizing efficacy
4 | CC1(C)S[C@@H]2[C@H](NC(=O)[C@H](N)c3ccccc3)C(=O)N2[C@H]1C(=O)O [ampicillin] | did not inhibit the growth | detected |  | in vitro growth inhibition (MIC assay) (B. cereus; listed as ampillin): no inhibition
5 | cephalothin |  | more effective inhibitors | more effective inhibitors | 
6 | CO/N=C(\C(=O)N[C@@H]1C(=O)N2C(C(=O)O)=C(COC(C)=O)CS[C@H]12)c1csc(N)n1 [cefatoxime] |  | more effective inhibitors | more effective inhibitors | 
7 | CC1(C)S[C@@H]2[C@H](NC(=O)[C@H](N)c3ccc(O)cc3)C(=O)N2[C@H]1C(=O)O [amoxicillin] | no inhibition | detected |  | in vitro growth inhibition (MIC assay) (B. cereus; listed as Amoxicillin): did not inhibit the growth
